What was measured:
[1] = molecular target: mouse melanocortin type 4 receptor (mouse) (UniProt P56450); conditions: scale: pEC50
[2] = molecular target: human melanocortin type 4 receptor (WT) (human) (UniProt P32245); conditions: scale: pEC50
WT-hMC4R = molecular target: T1, WT-hMC4R (Homo sapiens, UniProt P32245); assay: Melanocortin agonist cAMP production, WT receptor; assay type: cell-based; conditions: % of Emax of untreated WT-hMC4R upon 1 μM NDP-α-MSH
T1 construct: expressed in transfected cells
T1 sequence (P32245 whole entry): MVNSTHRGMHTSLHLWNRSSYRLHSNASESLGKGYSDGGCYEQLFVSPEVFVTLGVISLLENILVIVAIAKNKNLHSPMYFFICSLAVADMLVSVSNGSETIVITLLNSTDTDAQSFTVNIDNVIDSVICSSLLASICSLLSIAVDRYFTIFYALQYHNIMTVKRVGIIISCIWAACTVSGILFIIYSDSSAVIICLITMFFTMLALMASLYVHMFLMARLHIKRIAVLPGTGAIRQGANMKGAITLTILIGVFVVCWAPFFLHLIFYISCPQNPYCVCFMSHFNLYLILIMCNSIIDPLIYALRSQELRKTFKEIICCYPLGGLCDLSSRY
Experimental: (§1) Data are the means ± SEM of 3 independent experiments.
(§2) Cells were kept on ice for 5 minutes before proceeding to cAMP measurement. […] For all assays, plates were then put at –80°C at least 90 minutes and thawed at RT on Heidolph Titramax 100 shaker at speed 1050 rpm. Cell lysates were then transferred to 384-well plates, lysed, and incubated with cAMP labeled with the dye d2 and anti-cAMP M antibody labeled with Cryptate (cAMP dynamic-2 kit, cisbio) according to the manufacturer’s protocol. Reading of the homogeneous time-resolved fluorescence signal was performed on an Artemis time-resolved fluorescence resonance energy transfer plate reader (Cosmo Bio USA).

[3] = test system: hMC4R-KI, loxTB MC4R-null and nontransgenic mice; assay: Acute icv melanocortin agonist sensitivity, nocturnal food intake; assay type: in vivo, mouse; conditions: homozygous loxTB MC4R-null mice
Experimental: (A–C) Immunohistochemical labeling of MC4R-positive neurons. […] Inset in A: higher power magnification of boxed areas containing GFP immune reactive neurons (brown cytoplasmic reaction product). Arrows in the center and right insets indicate GFP-positive neurons. Scale bars: 100 μm (A), 50 μm (A, inset), […] (B) and 10 μm (C). […] Food intake was measured 4 hours postadministration in dark phase and reported in percentage.
Food consumption was then assessed between ZT10 and ZT15 (3 hours after lights off). Food consumption was then normalized relative to the basal food consumption measured the day before for each mouse (% food intake vs. basal) and is expressed as means ± SEM.
The guide cannulas were secured with screws and cranioplastic cement (Dentsply Canada). To prevent clogging and to reduce the potential for brain infection, sterile obturators (PlasticsOne) were inserted into the guide cannulas. Appropriate cannula placement was functionally verified before experiments using the dipsogenic effects of angiotensin 2 injections (5 ng) as positive control, 5 days after surgery.
The day prior to agonist sensitivity assay, basal food consumption was measured individually between Zeitgeber time 10 (ZT10) (10 hours after lights on) and ZT15 (3 hours after lights off). […] Food consumption was then assessed between ZT10 and ZT15. […]

R165W-hMC4R = molecular target: T2, R165W-hMC4R (Homo sapiens, UniProt P32245, R165W); assay: Melanocortin agonist cAMP production, mutant receptor; assay type: cell-based
T2 construct: expressed in transfected cells
T2 sequence (P32245 whole entry R165W): as the sequence (P32245 whole entry) above, with R165W counted along it
Experimental: as §1, §2

Chain of mouse melanocortin type 4 receptor (mouse) (P56450 whole entry): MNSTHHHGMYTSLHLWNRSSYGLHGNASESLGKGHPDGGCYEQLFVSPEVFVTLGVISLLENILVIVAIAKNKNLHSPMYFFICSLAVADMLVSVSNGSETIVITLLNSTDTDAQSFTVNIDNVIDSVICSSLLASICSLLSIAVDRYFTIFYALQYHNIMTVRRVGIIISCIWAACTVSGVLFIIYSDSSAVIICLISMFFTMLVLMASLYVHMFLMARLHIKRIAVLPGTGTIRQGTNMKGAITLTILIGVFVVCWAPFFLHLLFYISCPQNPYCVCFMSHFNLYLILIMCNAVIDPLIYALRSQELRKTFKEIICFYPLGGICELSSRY
Chain of human melanocortin type 4 receptor (WT) (human) (P32245 whole entry): as the sequence (P32245 whole entry) above

| Molecule | potency (pEC50) of α-MSH to activate Gs, BRET-based biosensor directly monitoring Gs activation [1] | potency (pEC50) of α-MSH to activate Gs, BRET-based biosensor directly monitoring Gs activation [2] | Emax (WT-hMC4R; WT-hMC4R after 10 μM UM0130866 for 15 hours, washed) [%] | Emax (WT-hMC4R; WT-hMC4R, untreated) [%] | food intake response (ZT10-ZT15) [3] | Emax (R165W-hMC4R) [%] |
| --- | --- | --- | --- | --- | --- | --- |
| α–melanocyte-stimulating hormone (peptide) | 8.64 | 7.48 | – | – | – | – |
| CSCC[C@H](NC(=O)[C@H](CCCNC(=N)N)NC(=O)[C@H](Cc1ccc(O)cc1)NC(=O)[C@@H]1CCCN1C(=O)CNC(=O)[C@H](CCC(=O)O)NC(=O)[C@H](CC(=O)O)NC(=O)[C@H](CCCCN)NC(=O)[C@H](CCCCN)NC(=O)[C@H](CCC(=O)O)NC(=O)[C@H](C)N)C(=O)N[C@@H](CCC(=O)O)C(=O)N[C@@H](Cc1c[nH]cn1)C(=O)N[C@@H](Cc1ccccc1)C(=O)N[C@@H](CCCNC(=N)N)C(=O)N[C@@H](Cc1c[nH]c2ccccc12)C(=O)NCC(=O)N[C@@H](CO)C(=O)N1CCC[C@H]1C(=O)N1CCC[C@H]1C(=O)N[C@@H](CCCCN)C(=O)N[C@@H](CC(=O)O)C(=O)O [β-MSH] | – | – | 92.7 ± 15.8 | 112 ± 2.55 | absence of anorexic response | 115 ± 43.5 |

— article PMC7934941, “Pharmacological chaperone action in humanized mouse models of MC4R-linked obesity” (JCI Insight, 2021)
